The text below walks through data of ChEMBL document CHEMBL1201862, “PubChem BioAssay data set” (2004).

Holding throughout (assay): growth of human tumour cells (NCI), 48 h
Assay [1] has as its system NCI-H460.
The test system of assay [2] is U-251.
Assay [3] has as its system SK-MEL-5.
For assay [4], the system named is OVCAR-3.
The subject of assay [5] is UACC-257.
Assay [6] relates to HOP-92.
Assay [7] relates to NCI-H226.
In assay [8] the test system is MCF7.
For assay [9], the system named is RPMI-8226.
In assay [10] the test system is A498.
In assay [11] the test system is HL-60.
Assay [12] has as its system SW-620.
The subject of assay [13] is COLO 205.
The test system of assay [14] is HT-29.
For assay [15], the system named is OVCAR-4.
The test system of assay [16] is CCRF-CEM.
Assay [17] concerns CAKI-1.
Assay [18] concerns A549.
For assay [19], the system named is HCC 2998.

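Compound exposure: 48 hours, 5 concentrations, 96-well plates. GI50 = concentration required for 50% inhibition of growth.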 Activity calls are given as the source filed them. Rule as the data show it: active = GI50 up to about 1.1 µM and inactive = higher.

Turning to `O=C1CN2CCN(CC2)CC(=O)Nc2ccc(cc2)S(=O)(=O)c2ccc(cc2)NC(=O)CN2CCN(CC2)CC(=O)Nc2ccc(cc2)S(=O)(=O)c2ccc(cc2)N1`, the GI50 in assay [1] was 19.5 µM (inactive); in assay [2] it was 13.7 µM (inactive); in [3], 31.8 µM (inactive); in assay [4], 27.9 µM (inactive); in assay [5], > 100 µM (inactive); in assay [6], > 100 µM (inactive). Moreover, the GI50 in [7] was 64.7 µM (inactive); in [8], 18.1 µM (inactive); in assay [9], 10.1 µM (inactive); in [10], > 100 µM (inactive); in [11], 0.557 µM (active); in assay [12], 14.1 µM (inactive). Moreover, the GI50 in assay [13] is 40.7 µM (inactive); in [14] it was 15 µM (inactive); in assay [15] it was > 100 µM (inactive); in assay [16], 0.31 µM (active); in assay [17], > 47.8 µM (inactive); in [18] it was > 63.2 µM (inactive). Further, the GI50 in assay [19] is > 61.9 µM (inactive).
`COc1ccc(OC)c(N2C(=O)CSC2c2cc(OC)c(OC)c(OC)c2)c1` (stereo not drawn): the GI50 in assay [1] is > 100 µM (inactive); in assay [2], > 100 µM (inactive); in assay [3], 99.8 µM (inactive); in assay [4], > 100 µM (inactive); in assay [5], 89.5 µM (inactive); in assay [6] it was > 100 µM (inactive). Besides, the GI50 in [7] is > 100 µM (inactive); in [8] it was 71.1 µM (inactive); in assay [9], > 100 µM (inactive); in assay [10] it was > 100 µM (inactive); in assay [11] it was > 100 µM (inactive); in [12], > 100 µM (inactive). Moreover, the GI50 is > 100 µM (inactive) in assay [13]; > 100 µM (inactive) in [14]; > 100 µM (inactive) in assay [15]; 71.8 µM (inactive) in assay [16]; > 100 µM (inactive) in assay [17]; > 100 µM (inactive) in assay [18]. Further, the GI50 in assay [19] is > 100 µM (inactive).
With `Cc1ccc2c(=O)c3c(O)c4c(cc3n(C)c2c1)OC(C)(C)C=C4`, the GI50 in assay [1], in assay [2], in [3], in assay [4], in [5] and in [6] was > 10 µM (inactive) in each case. The GI50 in assay [7], in assay [8], in assay [9], in [10], in [11] and in [12] was > 10 µM (inactive) each time. In addition, the GI50 in [13], in [14], in assay [15], in [16], in [17] and in assay [18] was > 10 µM (inactive) in each case. For the same compound, the GI50 in assay [19] is > 10 µM (inactive).
`CC(=O)c1sc2c(c1OC(=O)c1cccs1)c(=O)n(-c1ccccc1)c(=S)n2-c1ccccc1`: the GI50 in assay [1] is 12.3 µM (inactive); in assay [2], 5.86 µM (inactive); in assay [3], 12.1 µM (inactive); in assay [4], 23 µM (inactive); in assay [5] it was 11.7 µM (inactive); in assay [6], 5.24 µM (inactive). The GI50 in assay [7] is 3.08 µM (inactive); in assay [8], 21 µM (inactive); in assay [9], 4.32 µM (inactive); in assay [10], 4.71 µM (inactive); in assay [11] it was 26 µM (inactive); in [12], 22.4 µM (inactive). Moreover, the GI50 in [13] is 18 µM (inactive); in assay [14] it was 3.21 µM (inactive); in assay [15], 22 µM (inactive); in assay [16], 3.9 µM (inactive); in assay [17], 30.8 µM (inactive); in assay [18], 62.5 µM (inactive). Also, in assay [19], the GI50 was 39.4 µM (inactive).
Turning to `C[C@]12CCC(=O)C=C1CC[C@@H]1[C@@H]2CC[C@]2(C)C(=O)/C(=C\c3ccccc3)C[C@@H]12`, the GI50 in assay [1] is 17.1 µM (inactive); in assay [2], 29.4 µM (inactive); in [3], 14.2 µM (inactive); in [4] it was 22.1 µM (inactive); in [5], 23.1 µM (inactive); in [6], 23.2 µM (inactive). The GI50 in assay [7] is 2.38 µM (inactive); in assay [8], 19.1 µM (inactive); in assay [9] it was 10.9 µM (inactive); in [10], 15.6 µM (inactive); in [11], 9.79 µM (inactive); in assay [12], 22.8 µM (inactive). The GI50 in assay [13] was 24.2 µM (inactive); in assay [14], 19.6 µM (inactive); in assay [15] it was 41.9 µM (inactive); in [16] it was 2.8 µM (inactive); in [17], 43.5 µM (inactive); in [18], 22.6 µM (inactive). For the same compound, in assay [19], the GI50 is 17.4 µM (inactive).
For `OC(c1ccccc1)c1c(-c2ccccc2)[nH]c(-c2ccccc2)c1C(O)c1ccccc1` (stereo not drawn), the GI50 in [1] is 3.06 µM (inactive); in [2], 3.78 µM (inactive); in [3], 2.55 µM (inactive); in [4] it was 2.5 µM (inactive); in [5], 3.04 µM (inactive); in assay [6], 2.19 µM (inactive). The GI50 in [7] was 2.4 µM (inactive); in [8], 3.78 µM (inactive); in assay [9], 2.09 µM (inactive); in assay [10], 3.79 µM (inactive); in assay [11], 2.28 µM (inactive); in assay [12], 4.9 µM (inactive). Moreover, the GI50 in [13] is 1.74 µM (inactive); in assay [14] it was 3.99 µM (inactive); in assay [15], < 0.01 µM (active); in [16], 2.65 µM (inactive); in [17] it was 2.55 µM (inactive); in assay [18], 3.73 µM (inactive). For the same compound, the GI50 in assay [19] was 7.24 µM (inactive).
With `COc1cc2c(cc1OCCCC(=O)Nc1cc(C(=O)Nc3cc(C(=O)Nc4cc(C(=O)NCCCN(C)C)n(C)c4)n(C)c3)n(C)c1)N=C[C@@H]1CCCN1C2=O`, the GI50 in [1] was 3.21 µM (inactive); in assay [2], 1.6 µM (inactive); in [3] it was 2.24 µM (inactive); in [4], 2.02 µM (inactive); in assay [5] it was 1.97 µM (inactive); in [6], 1.88 µM (inactive). Moreover, the GI50 in [7] was 5.56 µM (inactive); in [8], 2.16 µM (inactive); in assay [9], 1.67 µM (inactive); in assay [10], 13.2 µM (inactive); in [11] it was 1.16 µM (inactive); in assay [12], 1.69 µM (inactive). The GI50 in assay [13] was 1.61 µM (inactive); in [14], 1.91 µM (inactive); in [15], 1.95 µM (inactive); in [16], 0.348 µM (active); in [17], 0.587 µM (active); in assay [18], 11.2 µM (inactive). Moreover, the GI50 in assay [19] is 14.2 µM (inactive).
